Laboratory results as given in US9913843B2, “Protein kinase C inhibitors and uses thereof” (Rigel Pharmaceuticals, Inc., priority 2012, dated 2018).
Read-outs that look alike come from different tables or passages of the source.

Test system: PKC mediated IL-2 production in human primary T cells
Test: IL-2 ELISA, human primary T cell, anti CD3+CD28+ (whole cell functional assay for PKC mediated IL-2 production)
Assay type: cell-based
How it was run: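 Primary human T cells (PBMC-derived, expanded on plate-bound anti-CD3/CD28 with IL-2, then IL-2-washed) were pre-incubated 1 h at 37 °C with compound, then stimulated on 1 μg/ml anti-CD3 plus 5 μg/ml anti-CD28. After 24 h at 37 °C, secreted IL-2 was measured by ELISA; counter assay used 0.5 ng/ml PMA plus 0.1 μM ionomycin (final).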

[1] = 24 h, human primary T cells stimulated with anti-CD3 + anti-CD28, IL-2 by ELISA, read-out: IC50 for blocking IL-2 production
[2] = human primary T cells stimulated with anti-CD3 + anti-CD28, 24 h, IL-2 by ELISA, 8 pt, read-out: IL2 ELISA, Human primary T cell, anti-CD3 + CD28, 8 pt (IC50)

Row | Structure (SMILES) | IC50 [1] | IC50 [2]
1 | COc1ccc(Nc2ncc(C)c(NC[C@@H]3CCCN4CCCC[C@H]34)n2)cc1-n1nnnc1C [Compound 64, N4-(((1S,9aR)-octahydro-1H-quinolizin-1-yl)methyl)-N2-(4-methoxy-3-(5-methyl-1H-tetrazol-1-yl)phenyl)-5-methylpyrimidine-2,4-diamine] | < 30 µM | 0.459 µM
2 | COc1cc(Nc2ncc(C)c(NC[C@@H]3CCCN4CCCC[C@H]34)n2)cc(-n2nnnc2C)c1 [Compound 65, N4-(((1S,9aR)-octahydro-1H-quinolizin-1-yl)methyl)-N2-(3-methoxy-5-(5-methyl-1H-tetrazol-1-yl)phenyl)-5-methylpyrimidine-2,4-diamine] | < 30 µM | 0.0728 µM
3 | Cc1cnc(Nc2cccc(C#N)c2)nc1NC[C@@H]1CCCN2CCCC[C@H]12 [Compound 66, 3-(4-(((1S,9aR)-octahydro-1H-quinolizin-1-yl)methylamino)-5-methylpyrimidin-2-ylamino)benzonitrile] | < 30 µM | 1.48 µM
4 | Cc1ccc(Nc2ncc(C)c(NC[C@@H]3CCCN4CCCC[C@H]34)n2)cc1C#N [Compound 67, 5-(4-(((1S,9aR)-octahydro-1H-quinolizin-1-yl)methylamino)-5-methylpyrimidin-2-ylamino)-2-methylbenzonitrile] | < 30 µM | 1.08 µM
5 | Cc1cnc(Nc2ccc(C3CC3)c(C#N)c2)nc1NC[C@@H]1CCCN2CCCC[C@H]12 [Compound 68, 5-(4-(((1S,9aR)-octahydro-1H-quinolizin-1-yl)methylamino)-5-methylpyrimidin-2-ylamino)-2-cyclopropylbenzonitrile] | < 30 µM | 0.95 µM
6 | Cc1cnc(Nc2cc(C#N)c(C3CC3)cc2F)nc1NC[C@@H]1CCCN2CCCC[C@H]12 [Compound 69, 5-(4-(((1S,9aR)-octahydro-1H-quinolizin-1-yl)methylamino)-5-methylpyrimidin-2-ylamino)-2-cyclopropyl-4-fluorobenzonitrile] | < 30 µM | 0.265 µM
7 | COc1cc(Nc2ncc(C)c(NC[C@@H]3CCCN4CCCC[C@H]34)n2)cc(OC)c1 [Compound 70, N4-(((1S,9aR)-octahydro-1H-quinolizin-1-yl)methyl)-N2-(3,5-dimethoxyphenyl)-5-methylpyrimidine-2,4-diamine] | < 30 µM | 1.53 µM
8 | Cc1cnc(Nc2ccc3oc(=O)[nH]c3c2)nc1NC[C@@H]1CCCN2CCCC[C@H]12 [Compound 71, 5-(4-(((1S,9aR)-octahydro-1H-quinolizin-1-yl)methylamino)-5-methylpyrimidin-2-ylamino)benzo[d]oxazol-2(3H)-one] | < 30 µM | 3.75 µM
9 | COc1cnc(Nc2cc(-n3cnnn3)c(C3CC3)cc2F)nc1NC[C@@H]1CCCN2CCCC[C@H]12 [Compound 72, N2-(4-cyclopropyl-2-fluoro-5-(1H-tetrazol-1-yl)phenyl)-N4-(((1S,9aR)-octahydro-1H-quinolizin-1-yl)methyl)-5-methoxypyrimidine-2,4-diamine] | < 30 µM | 1.27 µM
10 | COc1cnc(Nc2ccc(C)c(-n3cnnn3)c2)nc1NC[C@@H]1CCCN2CCCC[C@H]12 [Compound 73, N4-(((1S,9aR)-octahydro-1H-quinolizin-1-yl)methyl)-5-methoxy-N2-(4-methyl-3-(1H-tetrazol-1-yl)phenyl)pyrimidine-2,4-diamine] | < 30 µM | 3.27 µM
11 | COc1cnc(Nc2cc(-n3nnn(C)c3=O)c(C3CC3)cc2F)nc1NC[C@@H]1CCCN2CCCC[C@H]12 [Compound 74, 1-(5-(4-(((1S,9aR)-octahydro-1H-quinolizin-1-yl)methylamino)-5-methoxypyrimidin-2-ylamino)-2-cyclopropyl-4-fluorophenyl)-4-methyl-1H-tetrazol-5(4H)-one] | < 30 µM | 2.19 µM
12 | COc1cnc(Nc2ccc(F)c(-n3nnnc3C)c2)nc1NC[C@@H]1CCCN2CCCC[C@H]12 [Compound 75, N2-(4-fluoro-3-(5-methyl-1H-tetrazol-1-yl)phenyl)-N4-(((1S,9aR)-octahydro-1H-quinolizin-1-yl)methyl)-5-methoxypyrimidine-2,4-diamine] | < 30 µM | 2.91 µM
13 | COc1cnc(Nc2cc(-n3nnnc3C)ccc2F)nc1NC[C@@H]1CCCN2CCCC[C@H]12 [Compound 76, N2-(2-fluoro-5-(5-methyl-1H-tetrazol-1-yl)phenyl)-N4-(((1S,9aR)-octahydro-1H-quinolizin-1-yl)methyl)-5-methoxypyrimidine-2,4-diamine] | < 30 µM | 6.45 µM
14 | COc1ccc(Nc2ncc(OC)c(NC[C@@H]3CCCN4CCCC[C@H]34)n2)cc1-n1nnnc1C [Compound 77, N4-(((1S,9aR)-octahydro-1H-quinolizin-1-yl)methyl)-5-methoxy-N2-(4-methoxy-3-(5-methyl-1H-tetrazol-1-yl)phenyl)pyrimidine-2,4-diamine] | < 30 µM | 2.42 µM
15 | COc1cc(Nc2ncc(OC)c(NC[C@@H]3CCCN4CCCC[C@H]34)n2)cc(-n2nnnc2C)c1 [Compound 78, N4-(((1S,9aR)-octahydro-1H-quinolizin-1-yl)methyl)-5-methoxy-N2-(3-methoxy-5-(5-methyl-1H-tetrazol-1-yl)phenyl)pyrimidine-2,4-diamine] | < 30 µM | 2.24 µM
16 | COc1cnc(Nc2cccc(C#N)c2)nc1NC[C@@H]1CCCN2CCCC[C@H]12 [Compound 79, 3-(4-(((1S,9aR)-octahydro-1H-quinolizin-1-yl)methylamino)-5-methoxypyrimidin-2-ylamino)benzonitrile] | < 30 µM | 5.35 µM
17 | COc1cnc(Nc2ccc(C)c(C#N)c2)nc1NC[C@@H]1CCCN2CCCC[C@H]12 [Compound 80, 5-(4-(((1S,9aR)-octahydro-1H-quinolizin-1-yl)methylamino)-5-methoxypyrimidin-2-ylamino)-2-methylbenzonitrile] | < 30 µM | 2.48 µM
18 | COc1cnc(Nc2ccc(C3CC3)c(C#N)c2)nc1NC[C@@H]1CCCN2CCCC[C@H]12 [Compound 81, 5-(4-(((1S,9aR)-octahydro-1H-quinolizin-1-yl)methylamino)-5-methoxypyrimidin-2-ylamino)-2-cyclopropylbenzonitrile] | < 30 µM | 1.31 µM
19 | COc1cnc(Nc2cc(C#N)c(C3CC3)cc2F)nc1NC[C@@H]1CCCN2CCCC[C@H]12 [Compound 82, 5-(4-(((1S,9aR)-octahydro-1H-quinolizin-1-yl)methylamino)-5-methoxypyrimidin-2-ylamino)-2-cyclopropyl-4-fluorobenzonitrile] | < 30 µM | 1.31 µM
20 | COc1cc(Nc2ncc(OC)c(NC[C@@H]3CCCN4CCCC[C@H]34)n2)cc(OC)c1 [Compound 83, N4-(((1S,9aR)-octahydro-1H-quinolizin-1-yl)methyl)-5-methoxy-N2-(3,5-dimethoxyphenyl)pyrimidine-2,4-diamine] | < 30 µM | 3.87 µM
21 | COc1cnc(Nc2ccc3oc(=O)[nH]c3c2)nc1NC[C@@H]1CCCN2CCCC[C@H]12 [Compound 84, 5-(4-(((1S,9aR)-octahydro-1H-quinolizin-1-yl)methylamino)-5-methoxypyrimidin-2-ylamino)benzo[d]oxazol-2(3H)-one] | < 30 µM | 15.4 µM
22 | CN(C)c1cnc(Nc2cc(-n3cnnn3)c(C3CC3)cc2F)nc1NC[C@@H]1CCCN2CCCC[C@H]12 [Compound 85, N2-(4-cyclopropyl-2-fluoro-5-(1H-tetrazol-1-yl)phenyl)-N4-(((1S,9aR)-octahydro-1H-quinolizin-1-yl)methyl)-N5,N5-dimethylpyrimidine-2,4,5-triamine] | < 30 µM | 3.31 µM
23 | Cc1ccc(Nc2ncc(N(C)C)c(NC[C@@H]3CCCN4CCCC[C@H]34)n2)cc1-n1cnnn1 [Compound 86, N4-(((1S,9aR)-octahydro-1H-quinolizin-1-yl)methyl)-N5,N5-dimethyl-N2-(4-methyl-3-(1H-tetrazol-1-yl)phenyl)pyrimidine-2,4,5-triamine] | < 30 µM | 11 µM
24 | CN(C)c1cnc(Nc2cc(-n3nnn(C)c3=O)c(C3CC3)cc2F)nc1NC[C@@H]1CCCN2CCCC[C@H]12 [Compound 87] | < 30 µM | 8.26 µM
25 | Cc1nnnn1-c1cc(Nc2ncc(N(C)C)c(NC[C@@H]3CCCN4CCCC[C@H]34)n2)ccc1F [Compound 88, N2-(4-fluoro-3-(5-methyl-1H-tetrazol-1-yl)phenyl)-N4-(((1S,9aR)-octahydro-1H-quinolizin-1-yl)methyl)-N5,N5-dimethylpyrimidine-2,4,5-triamine] | < 30 µM | 12.7 µM
26 | Cc1nnnn1-c1ccc(F)c(Nc2ncc(N(C)C)c(NC[C@@H]3CCCN4CCCC[C@H]34)n2)c1 [Compound 89, N2-(2-fluoro-5-(5-methyl-1H-tetrazol-1-yl)phenyl)-N4-(((1S,9aR)-octahydro-1H-quinolizin-1-yl)methyl)-N5,N5-dimethylpyrimidine-2,4,5-triamine] | < 30 µM | 14.6 µM
27 | COc1ccc(Nc2ncc(N(C)C)c(NC[C@@H]3CCCN4CCCC[C@H]34)n2)cc1-n1nnnc1C [Compound 90, N4-(((1S,9aR)-octahydro-1H-quinolizin-1-yl)methyl)-N2-(4-methoxy-3-(5-methyl-1H-tetrazol-1-yl)phenyl)-N5,N5-dimethylpyrimidine-2,4,5-triamine] | < 30 µM | 9.82 µM
28 | COc1cc(Nc2ncc(N(C)C)c(NC[C@@H]3CCCN4CCCC[C@H]34)n2)cc(-n2nnnc2C)c1 [Compound 91, N4-(((1S,9aR)-octahydro-1H-quinolizin-1-yl)methyl)-N2-(3-methoxy-5-(5-methyl-1H-tetrazol-1-yl)phenyl)-N5,N5-dimethylpyrimidine-2,4,5-triamine] | < 30 µM | 7.94 µM
